Laboratory results taken from US10792328B2, “Nanocomplexes for delivery of saporin” (Trustees of Tufts College, priority 2013, dated 2020).

Key:
MDA-MB-231 cancer cells = assay: In vitro protein transfection (saporin delivery), cell viability by Alamar Blue assay; assay type: cell-based; settings: MDA-MB-231 cells, under all four studied conditions
Procedure: Compositions 1-32 were tested for delivery of saporin into cells MDA-MB-231.
The two cells lines were purchased from ATCC (Manassas, Va.) and cultured in Dulbecco's Modified Eagle Medium (“DMEM”) supplemented with 10% Fetal Bovine Serum (“FBS”) and 1% penicillin/streptomycin at 37° C. in the presence of 5% CO2. For the protein transfection assay described below, cells were seeded in 96-well plates at a density of 10,000 cells per well a day prior to transfection.
To evaluate saporin delivery efficiency, lipid-like compound/saporin nanocomplexes prepared in Examples 19-54 were added to MDA-MB-231 cancer cells and incubated at 37° C. for 24 hours. The saporin concentration was 0.1 μg/250 μL in PBS. The same volume of PBS without any lipid-like compound or saporin was used as a control. The cell viability was determined by the Alamar Blue assay after 24 hours of incubation. All transfection studies were performed in quadruplicate.

4T1-12B breast tumors = assay: In vivo cancer treatment, inhibition of tumor growth; settings: BALB/c mice bearing 4T1-12B breast tumors, tail-vein injection every three days, 5.5 mg/kg lipid-like compound and 330 μg/kg saporin
Procedure: Composition 33 (i.e., 1-O16B/saporin) and Composition 34 (i.e., 1-O18B/saporin) were tested for in vivo inhibiting tumor growth following the procedure described below. More specifically, BALB/c mice bearing 4T1-12B breast tumors were developed from a 4T1-12B cell suspension in DMEM supplemented with 10% FBS at a concentration of 10^7 cells/ml. An aliquot (100 μl) of the cell suspension was injected into the mammary fat pad of 4-6 week-old female BALB/c mice. The mice were sorted into four groups randomly (n=7 for treatment group, n=5 for control groups) seven days after the injection. The mice were injected through tail-vein every three days. For the treatment group, each mouse was injected with 5.5 mg/kg of 1-O16B or 1-O18B and 330 μg/kg of saporin. Tumor volumes were measured every three days.
PBS without 1-O16B, 1-O18B, and saporin was also injected as a control. Comparative studies were also conducted using saporin in PBS without 1-O16B and 1-O18B.

Compound | saporin delivery efficiency (MDA-MB-231 cancer cells) | tumor size (4T1-12B breast tumors; Day 16) | tumor size (4T1-12B breast tumors; Day 22)
CCCCCCCCCCSSCCOC(=O)CCN(C)CCCN(C)CCC(=O)OCCSSCCCCCCCCCC [Composition 80-O14B] | high saporin delivery efficiency |  | 
CCCCCCCCCCCCSSCCOC(=O)CCN(C)CCCN(C)CCC(=O)OCCSSCCCCCCCCCCCC [Composition 80-O16B] | high saporin delivery efficiency |  | 
CCCCCCCCCCCCCCCCOC(=O)CCN(C)CCCN(C)CCC(=O)OCCCCCCCCCCCCCCCC [Composition 80-O16] | high saporin delivery efficiency |  | 
CCCCCCCCCCCCCCSSCCOC(=O)CCN(C)CCCN(C)CCC(=O)OCCSSCCCCCCCCCCCCCC [Composition 80-O18B] | high saporin delivery efficiency |  | 
CCCCCCCCCCCCCCCCCCOC(=O)CCN(C)CCCN(C)CCC(=O)OCCCCCCCCCCCCCCCCCC [Composition 80-O18] | high saporin delivery efficiency |  | 
CCCCCCCCCCCCSSCCOC(=O)CCN(CCCN(CCO)CCO)CCC(=O)OCCSSCCCCCCCCCCCC [Composition 87-O16B] | high saporin delivery efficiency |  | 
saporin |  | more than 120 mm^3 | more than 250 mm^3
